Test results published in US10532106B2 (priority 2014, dated 2020).
Numbered stars: 1 amine (or outer) side, 2 acyl side, 3 side chain; on linkers, the order of the positions; unused ones are H or OH. Bridge positions count the residues as written; N and C are the ends. Square brackets hold non-standard residues; d marks the D form. Peptide text beside a SMILES is read from it. TBMB = c1c(C[*:1])cc(C[*:3])cc1C[*:2]; Sar = CNCC(=O)O

Columns and labels:
[1] = Plasma stability, quantitative LC-MS; format: in vitro ADME, rat; details: Table 16; incubation up to 24 hrs, 4 μM
[2] = Plasma stability, quantitative LC-MS (Method #2); format: in vitro ADME, mouse
Experimental: […] […] Prior to LC-MS analysis, samples were defrosted, and mixed with 3 volumes (here, 120 μL) of 1:1 acetonitrile/MeOH water. The milky suspensions were centrifuged for 30 min at 13000 rpm, and peptide-containing supernatants were quantitated for doubly/triply charged species and MS/MS fragments thereof using a Waters Xevo TQ-D instrument, while using a plasma extracted standard curve of the same peptides as a reference. The half-life of degradation in plasma was used to assess the comparative stability of the molecules.

[3] = Degradation products in mouse plasma by MALDI-TOF (Method #1); format: in vitro ADME
Experimental: A rapid plasma stability profiling assay was developed that employed mass spectrometric detection (MALDI-TOF, Voyager DE, Applied Biosystems) of the parent mass as well as plasma-protease induced fragments thereof. By assessing the nature of the fragments, preferred cleavage sites can be determined. Here, a 1-1.5 mM peptide stock (in DMSO) was directly diluted into mouse/rat/human plasma (Sera labs, using citrate as anticoagulant), giving a final concentration of 50 μM peptide, and incubated for up to 48 hrs at 37° C. 5 μL samples were taken at appropriate time points and frozen at −80° C. For analysis, the samples were defrosted, mixed with 25 μL of 3:3:1 acetonitrile:methanol:water, and centrifuged at 13 k for 5 min. 5 μL of the peptide-containing supernatant was aspirated and mixed with 30 mM ammonium bicarbonate in a 1:1 mixture of acetonitrile:H2O. 1 μL of this was then spotted on the MALDI plate, dried, and Matrix (alpha-cyanocinnamic acid, Sigma, prepared as a saturated solution in 1:1 acetonitrile:water containing 0.1% trifluoroacetic acid) was layered over the sample (1 μL), dried and analysed using the MALDI TOF. […]
In an effort to understand the chemical nature of the degradation of 17-69-07-N219 in mouse plasma, samples were analysed using MALDI-TOF for any potential degradation products.

MT1-MMP hemopexin domain = molecular target: T1, MT1-MMP hemopexin domain (Homo sapiens, UniProt P50281); assay: Competition assay using fluorescence polarisation; format: binding; details: murine, dog, cynomolgus and human MT1-MMP
T1 construct: residues Cys319-Gly511 from the human gene; His6 (N); made in house; host or cells: HEK293 (transient), pEXPR-IBA42 vector
In short: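 Pre-formed PEX–fluorescent tracer complex titrated with non-fluoresceinated bicyclic peptide, which displaces tracer and lowers fluorescence polarisation. Competitor Kd obtained by fitting to the cubic-equation solution for tracer/titrant/protein equilibria, using tracer Kd from separate direct-binding FP.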

SMILES: CC[C@H](C)[C@@H]1NC(=O)[C@H](CC(=O)O)NC(=O)[C@H](Cc2ccc(O)cc2)NC(=O)[C@H](Cc2ccccc2)NC(=O)[C@H](CC(=O)O)NC(=O)[C@H](CCC(=O)O)NC(=O)[C@@H]2CSCc3cc(cc(c3)CSC[C@H](NC(=O)[C@H](C)NC(=O)CN(C)C(=O)CN(C)C(=O)CN(C)C(=O)CN(C)C(=O)CN(C)C(=O)CN(C)C(=O)CN(C)C(=O)CN(C)C(=O)CN(C)C(=O)CN(C)C(=O)CN)C(=O)N[C@@H](Cc3ccc(O)cc3)C(=O)N[C@@H](CC(N)=O)C(=O)N[C@@H](CCC(=O)O)C(=O)N[C@@H](Cc3ccccc3)C(=O)NCC(=O)N2)CSC[C@@H](C(N)=O)NC1=O [17-69-07-N219, G-Sar10-A-(17-69-07)] (H-G[Sar][Sar][Sar][Sar][Sar][Sar][Sar][Sar][Sar][Sar]ACYNEFGCEDFYDIC-NH2; linker 13-19-26 via TBMB)
- t1/2 (hrs) (rat plasma) [1]: 3.7 ± 0^ hrs
- t1/2 (hrs) (mouse plasma) ([2]; Table 16, incubation up to 24 hrs, 4 μM): 3.9 ± 0.3 h
- half-life in mouse plasma ([2]; ex vivo mouse plasma at 37° C. (FIG. 1, FIG. 3A)): 6 h
- degradation products [3]: possible loss of tyrosine
- species cross-reactivity (MT1-MMP hemopexin domain): fully cross reactive
